Data as given in US6338962B1, “Use of a non-mammalian DNA virus to express an exogenous gene in a mammalian cell” (priority 1996, dated 2002).

What was measured:
[1] = tested on: Hep G2; experiment: Comparison of promoter strengths, β-galactosidase ONPG assay; format: cell-based, human; conditions: for Promoter strength, β-galactosidase: moi 100, 24 hours, mock background subtracted
From the text: Baculovirus-mediated Gene Transfer is Enhanced by Butyrate: This example illustrates that butyrate enhances the ability of a baculovirus to express an exogenous gene in a mammalian cell. Five transfer plasmids containing different mammalian promoters were created, as diagrammed in FIG. 18. These vectors were constructed using pSV/BV, a modified version of the baculovirus transfer plasmid pBacPAK9 (Clontech), containing an altered polylinker and SV40 splice and polyadenylation signals. pSV/BV was constructed by restriction of pBacPAK9 with NotI, treatment with T4 DNA polymerase to create blunt ends, and self-ligation to remove the NotI site. A new NotI site was then added by ligation of the linker p[…] into the SmaI site. Finally, SV40 splice and polyadenylation sequences were added by digestion of a variant of pRSVglobin with BglII-BamHI, and insertion of the 850 bp fragment into the BamHI site of the modified BacPAK9, yielding pSV/BV. The human cytomegalovirus immediate early promoter, 758 bp HindIII-XbaI fragment, was excised from PCMV-EBNA (Invitrogen) at HindIII, BamHI and inserted into the HindIII, BamHI sites of pBluescript (SKII^+), yielding plasmid pCMV-SKII^+. The promoter was then excised from CMV-SK II^+ at the XhoI, BamHI sites and inserted into the XhoI, BglII sites of pSV/BV, yielding plasmid pCMV/BV. The 500 bp mouse phosphoglycerate kinase (PGK) promoter was prepared by cutting pKJ1-neo (Tybulewicz et al., 1991, Cell 65: 1153-1163) with EcoRI and made blunt with T4 DNA polymerase to remove the EcoRI site. The resulting pKJ1 plasmid lacking the EcoRI site was amplified by pfu polymerase chain reaction using the primers 5′ […]3′ (SEQ ID NO: 5) and 5′ […]3′ (SEQ ID NO: 6). The amplified PGK promoter was then digested with XhoI and BglII and inserted into the same sites of pSV/BV yielding PKJ1/BV. The 345 bp rat β-actin promoter was excised from pINA (6) at BglII, BamHI and inserted into the BglII site of pSV/BV yielding pβ-actin/BV. The 2.3 kb albumin enhancer and 700 bp albumin promoter were excised from pGEMAlbSVPA (Zaret et al., 1988, Proc. Natl. Acad. Sci. 85:9076-9080) at NaeI, NsiI and inserted into the SmaI, PstI sites of pSV/BV. The RSVlacZ transfer plasmid used (also referred to herein as the Z4 virus) is described above. A 3.0 kb Lac Z cassette was inserted into the NotI site of all of the plasmids constructed (See FIG. 18).
Recombinant viruses were generated by contransfection of the baculovirus transfer vectors with linear BP6 viral DNA (Clontech) into Sf21 cells. The recombinant viruses were purified through three rounds of plaque isolation and amplified on Sf21 cells. The amplified viruses were concentrated by ultracentrifugation as described above and titered by a 96-well method on Sf21 insect cells (O'Reilly et al., 1992, Baculovirus Expression Vectors: A Laboratory Manual, W.H. Freeman, New York, N.Y.).
The human hepatocellular carcinoma cell line HepG2 was infected with each recombinant virus at a multiplicity of infection of 100. Two million cells were infected in a final volume of 1 ml Eagle's Minimum Essential Medium in a 60 mm tissue culture dish. The infection was allowed to proceed for two hours, then 4 ml of complete medium was added to the cells. In a second series of HepG2 infections, the conditions of the first infections were repeated with the exception that after the infection had proceeded for 2 hours 25 μl of sodium butyrate (100 mM) was added to the cells with 1.5 ml complete media. […]

[2] = tested on: HepG2 cells; experiment: De novo expression test with inhibitors, β-galactosidase in extracts; format: cell-based, human
Protocol: Second, HepG2 cells were infected with the RSV-lacZ virus and then cultured in the presence of the protein synthesis inhibitor cycloheximide.
To determine whether endosome acidification was necessary for baculovirus-mediated gene transfer into mammalian cells, HepG2 cells were infected with RSV-lacZ AcMNPV in the presence of chloroquine, a lysomotropic agent. HepG2 cells were exposed to AcMNPV virus in media containing or lacking inhibitor for 90 minutes, then the virus-containing media were removed and replaced with fresh media containing or lacking inhibitors as listed.
At one day post-infection, the cells were harvested and extracts were assayed for β-galactosidase activity and protein content. Each value in the table represents the average of three independent assays, with the amount of β-galactosidase produced by the RSV-lacZ AcMNPV virus in the absence of inhibitors assigned a value of 100%. β-galactosidase activity was normalized for protein content of each extract.

[3] = tested on: Rat Hepatocytes; experiment: Comparison of promoter strengths, β-galactosidase ONPG assay; format: cell-based; conditions: Rat Hepatocytes −butyrate
[4] = tested on: HepG2 cells; experiment: X-gal histochemical staining of infected cells; format: cell-based, human; conditions: moi 100
Protocol: […] Adherent cell lines were seeded one day prior to infection. Cells were exposed to virus in 2 ml of medium for 90 minutes, and then the virus-containing medium was removed and replaced with fresh medium. Mock-infected cells were treated with 2 ml medium lacking the viral inoculum.
For histochemical staining of β-galactosidase activity, cells were fixed in 2% (w/v) formaldehyde-0.2% (v/v) […] in PBS for 5 minutes. After several rinses with PBS, the cells were stained by the addition of 0.5 mg/ml of X-gal (BRL) in PBS for 2-4 hours at 37° C.

Compound: CCCC(=O)[O-].[Na+] [sodium butyrate, reference compound]
- effect of addition after infection on β-galactosidase expression ([1]; HepG2, added 2 hours after start of infection): detectable levels of β-galactosidase expression with all of the promoters tested

Compound: CCN(CC)CCCC(C)Nc1ccnc2cc(Cl)ccc12 (stereo not drawn) [chloroquine]
- effect on de novo expression of β-galactosidase ([2]; 25 μM continuously present during and after exposure to virus): completely prevented
- effect on β-galactosidase expression ([2]; added at 90 minutes after exposure to the virus): only partial inhibition

Compound: Albumin
- Promoter strength, β-galactosidase [3]: 0.15 ± 0.08 Units/mg
- X-gal staining of cells not treated with butyrate [4]: positively stained cells were detected
- Promoter strength, β-galactosidase ([1]; Hep G2 +butyrate): 0.08 ± 0.04 Units/mg
- Promoter strength, β-galactosidase ([1]; Hep G2 −butyrate): 0.0 ± 0.0 Units/mg
- Promoter strength, β-galactosidase ([1]; Hep G2 −butyrate, listed as albumin): no activity above background levels
- change of gene expression after treatment with butyrate ([1]; HepG2): increased gene expression
